Results on 7 compounds are retold here after paper PMC6287471 (International Journal for Parasitology: Drugs and Drug …, 2018).

The target of assay [1] is T1, Hco-ACC-2 WT channel (Haemonchus contortus, UniProt A0A219KWM7).
T1 sequence (A0A219KWM7 18-443): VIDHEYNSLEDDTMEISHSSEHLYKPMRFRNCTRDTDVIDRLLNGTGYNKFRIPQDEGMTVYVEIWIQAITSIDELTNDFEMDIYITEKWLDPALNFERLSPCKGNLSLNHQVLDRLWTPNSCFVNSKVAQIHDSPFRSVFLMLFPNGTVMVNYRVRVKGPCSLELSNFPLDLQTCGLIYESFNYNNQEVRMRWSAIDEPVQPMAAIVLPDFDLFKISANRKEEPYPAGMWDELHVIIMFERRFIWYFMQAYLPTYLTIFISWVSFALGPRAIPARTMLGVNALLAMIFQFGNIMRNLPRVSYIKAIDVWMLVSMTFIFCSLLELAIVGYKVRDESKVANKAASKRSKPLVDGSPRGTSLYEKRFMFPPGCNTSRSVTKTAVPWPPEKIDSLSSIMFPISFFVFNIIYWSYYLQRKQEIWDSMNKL
As to conditions: wild-type channel; partial = maximum response lower than 100% of ACh.

Assay [2] addresses T1, Hco-ACC-2 WT channel. Put plainly: cell-based. To be noted: EC50 ± standard error, n ≥ 5 oocytes.

Molecules are shown by their SMILES. Counter-ions that a name gives are not always drawn.

In the case of `CC(=O)OCC[N+](C)(C)C` [Acetylcholine], the “full or partial agonist” value in assay [1] is recorded as “full agonists”.
Regarding `C[N+](C)(C)CCOC(N)=O` [Carbachol, Carbamoylcholine Chloride], the “full or partial agonist” value in assay [1] is reported as “partial agonists”. In addition, the EC50 (in general, the concentration needed to bring the measured effect to its halfway point) in assay [2] was 43 ± 4 µM.
In assay [2], `C[N+](C)(C)CCO` [Choline, Choline Chloride] yielded an EC50 of 1280 ± 35 µM.
Turning to `c1ccc([C@H]2CN3CCSC3=N2)cc1` [Levamisole, Levamisole Hydrochloride], the “full or partial agonist” value in assay [1] is “partial agonists”. The compound further registered a 50% effective concentration (EC50) in assay [2] of 98 ± 4 µM.
Take `CC(=O)OC(C)C[N+](C)(C)C` (stereo not drawn) [Methacholine, Acetyl-β-methylcholine Chloride]: in assay [1], the “full or partial agonist” value is “full agonists”. In assay [2], this compound returned an EC50 of 100 ± 2 µM.
The like results for `CN1CCCN=C1/C=C/c1cccs1` [Pyrantel, Pyrantel Citrate Salt] were, in that order, “partial agonists” and 72 ± 4 µM.
With `CC(C[N+](C)(C)C)OC(N)=O` (stereo not drawn) [Urecholine, Carbamyl-β-methylcholine chloride], the “full or partial agonist” value in assay [1] is “partial agonists”. For the same compound, the response in assay [2] was half-maximal at 747 ± 22 µM (EC50).
